Earlier results in patent US11441162B2, “Human gut microbiome-derived biosynthetic enzymes for production of fatty acid amides” (Massachusetts Institute of Technology, priority 2019, dated 2022).

Biological target: T1, GPR119 (Homo sapiens, UniProt Q8TDV5)
T1 sequence (Q8TDV5 1-335): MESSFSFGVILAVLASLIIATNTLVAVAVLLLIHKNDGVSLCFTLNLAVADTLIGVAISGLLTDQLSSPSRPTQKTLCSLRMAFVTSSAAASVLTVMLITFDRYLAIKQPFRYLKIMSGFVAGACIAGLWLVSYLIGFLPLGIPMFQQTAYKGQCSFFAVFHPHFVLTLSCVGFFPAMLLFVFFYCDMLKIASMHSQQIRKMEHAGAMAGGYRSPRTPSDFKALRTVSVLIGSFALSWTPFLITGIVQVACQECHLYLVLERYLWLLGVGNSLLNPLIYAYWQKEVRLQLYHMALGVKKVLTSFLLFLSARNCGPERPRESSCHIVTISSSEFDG
Conditions: previously reported human microbiome-derived FAA GPCR modulator; read-out: GPR119 agonist at (previously reported); cited from earlier work

Compound: CCCCCCCC/C=C\CCCCCCCC(=O)NC(CO)CO [oleoyl serinol]
- EC50: 7 µM
